Blank lines part the entries; values can stand above or below the compound they belong to. Where a SMILES comes first, the peptide text is derived from it.
Legend:
STZ-diabetic rats [1] = assay: Neuropathic pain in STZ model (thermal withdrawal latency); assay type: in vivo, rat; settings: 10 mg/kg i.p. daily, treatment from 45 days post STZ
Procedure: Male Sprague-Dawley rats (200–225 g) were rendered diabetic by intravenous administration of streptozotocin (“STZ”, 70 mg/kg in phosphate buffered saline). Diabetic animals were divided into five groups: one group receiving Compound A (10 mg/kg or 1 mg/kg), Compound D (10 mg/kg or 1 mg/kg) or vehicle. Another group of animals (non-STZ treated) served as non-diabetic controls. Drug/vehicle treatment was started in diabetic animals 45 days post-STZ administration. STZ-induced diabetic rats were tested for sensitivity to a heat source as soon as blood glucose levels rose to 320 mg/dl or above (30 days post STZ). The rats were then acclimated to a Hargreaves apparatus and thermal nociception was monitored using an infrared heat source directed into the dorsal surface of the hindpaw, and the time taken for the animal to remove its paw noted to the nearest 0.1 seconds (see Hargreaves et al., supra, for detailed experimental method). The intensity of the beam source was adjusted such that the mean latency for control animals (non-STZ treated) was approximately 10 seconds. Each animal was tested 8 times and the mean difference score (between mean non-diabetic control latency and mean diabetic latency) are graphically presented in FIGS. 7A and 7B.

BB/W diabetic rats = assay: Progression of neuropathic pain and nerve conduction deficits in BB/W model; assay type: in vivo, rat
Source text: Male BB/W rats (BRI, Mass) spontaneously develop a cell mediated autoimmune destruction of pancreatic B cells, resulting in onset of insulin-dependent (Type I) diabetes (Guberski 1994). […] This renders them valuable for experimental trials of new compounds for future treatments of this major disorder. In the present study, Compound D and Compound A were examined for their ability to alter the progression of diabetic neuropathy. The rats received daily injection of Compound D or Compound A (10 mg/kg i.p.) or vehicle, starting at the onset of diabetes (hyperglycemia) and up to 6 months thereafter. Another group of non-diabetic rats also receiving vehicle were tested. All animals were continuously monitored for body weight, urine volume, blood sugar and glycated haemoglobin. In the first month of the study, all animals were tested for thermal nociception in a Hargreaves apparatus, weekly. After the first month this was done biweekly and then monthly. The testing consists of directing an infrared heat source onto the dorsal surface of the rat hindpaw and noting the time taken for the animal to remove its paw (see Hargreaves et al., supra, for a description of the experimental method). Each animal was tested 8 times and the mean withdrawal latency noted.
Nerve conduction velocity was also measured every two weeks through the first eight weeks of treatment and every month thereafter through to the six months of treatment (see De Koning et al., Peptides, Vol. 8, No. 3, pp. 415–22 (1987) for a description of the experimental method). […] This was apparent starting at 8 weeks of treatment and persisted to a similar degree through to the six month termination point of the study.

STZ-diabetic rats [2] = assay: Diabetic neuropathy in STZ model (nerve conduction velocity); assay type: in vivo, rat; settings: 10 mg/kg daily, 4, 8 and 12 weeks
Procedure: Motor and sensory nerve conduction velocity was also measured in STZ-diabetic animals after 4, 8 and 12 weeks of treatment (see De Koning et al., supra, for a description of the experimental method). Briefly, stimulating needle electrodes were inserted close to the sciatic and tibial nerves with recording electrodes being placed subcutaneously over the distal foot muscles, in anesthetized rats.

transgenic G1H mice = assay: Effect on onset of ALS in transgenic FALS mice; assay type: in vivo, mouse
Procedure: The effect of NAALADase inhibitors on the onset of ALS was tested using the transgenic mice model of familial Amyotrophic Lateral Sclerosis (FALS), which is detailed in Gurney, M., Annals of Neurology (1996) 39:147–157, and otherwise well known in the art. One month old transgenic G1H mice were treated with daily intraperitoneal injections of a vehicle (50 mM HEPES-buffered saline) or a NAALADase inhibitor (50 mg/kg Compound A). Clinical symptoms of the mice were monitored daily. The onset of clinical disease was scored by examining each mouse for its shaking of limbs when suspended in the air by its tail, cross spread of spinal reflexes, hindlimb paralysis, body weight and wheel running activity.

[3] = tested on: Brown Norway rats with unilateral elevation of intraocular pressure; assay: Experimental rat glaucoma (IOP elevation), optic nerve fiber counting; assay type: in vivo; settings: 8 week group, 10 mg/kg i.p. daily
Procedure: (§1) All experiments complied with the Association for Research in Vision and Ophthalmology Statement for the Use of Animals in Ophthalmic and Vision Research. 82 male Brown Norway rats (Rattus norvegicus), each weighing approximately 250 gm, were treated using procedures approved by the Animal Care Committee of the Johns Hopkins University School of Medicine. The rats were housed with a 12 hour light/12 hour dark cycle and fed ad libitum.
EXPERIMENTAL GLAUCOMA: Unilateral elevation of intraocular pressure (“IOP”) was produced in 56 rats by microinjection of hypertonic saline into episcleral veins, following procedures described in Morrison, J. et al., IOVS (March 1998) 39:526–531. Beginning on the day of IOP elevation, the rats were treated daily with intraperitoneal injections of either a vehicle (23 rats with 50 mM HEPES-buffered saline) or a NAALADase inhibitor (11 rats with 10 mg/kg of Compound A and 22 rats with 10 mg/kg of Compound B). 11 saline treated rats, 11 Compound A treated rats and 11 Compound B treated rats were sacrificed at 8 weeks, and the remaining rats at 12 weeks, after initial IOP elevation.
(§2) OPTIC NERVE COUNTING: The rats were sacrificed by exsanguination under deep pentobarbital anesthesia. They were perfused through the heart with 2% paraformaldehyde/2% glutaraldehyde in 0.1 M phosphate buffer, pH 7.2, and the eyes with attached optic nerves were removed. A cross-section of the optic nerve from both experimental (glaucoma or transection) and control eyes was removed 1.5 mm posterior to the globe, 1 mm in thickness, and post-fixed in 2% osmium tetroxide in buffer. These were processed into epoxy resin, sectioned at 1 micron and stained with toluidine blue.
(§3) The area of the optic nerve cross-section was measured by outlining its outer border at 10× magnification on an image analysis system (Universal Imaging Corp., Westchester, Pa.) with Synsys digital camera and Metamorph software. Three area measurements were taken and the mean value was determined. To measure the density and fiber diameter distributions, images were captured with a 100× phase contrast objective from 10 different areas of each nerve. These were edited to eliminate non-neural objects and the size of each axon internal to the myelin sheath (its minimum diameter) and the density of axons/square mm were calculated for each image and nerve. The mean density was multiplied by total nerve area to yield fiber number for each nerve. The total fiber number in glaucoma or transection nerves was compared to the normal, fellow eye of each rat to yield a percent loss value. The number of axons counted among the 10 images was an approximately 20% sample of the 80–90,000 axons in normal rat nerves. The person measuring axon number was masked to the protocol conducted on the nerves.

[4] = tested on: Brown Norway rats with unilateral optic nerve transection; assay: Optic nerve transection, optic nerve fiber counting; assay type: in vivo, Rattus norvegicus; settings: for FIBER NUMBER ± SEM / PERCENT DIFFERENCE ± SEM in fiber number between transected and normal eye: 10 mg/kg i.p. daily
Procedure: as §1
OPTIC NERVE TRANSECTION: The optic nerve was transected unilaterally in 26 rats under intraperitoneal pentobarbital anesthesia. The conjunctiva was opened with scissors and the optic nerve exposed by traction on extraocular muscles. The transection was performed with microscissors 5 mm posterior to the globe, with specific attention to avoidance of injury to major ocular blood vessels. Immediately after transection, the retina was examined ophthalmoscopically to assure that the retinal arterial blood supply was not disrupted. The conjunctiva was closed with absorbable suture and the eye dressed with antibiotic ointment. Beginning on the day of transection, the rats were treated daily with intraperitoneal injections of either a vehicle (9 rats with 50 mM HEPES-buffered saline) or a NAALADase inhibitor (8 rats with 10 mg/kg of Compound A and 9 rats with 10 mg/kg of Compound B). 5 saline treated rats, 3 Compound A treated rats and 4 Compound B treated rats were sacrificed at 2 weeks, and the remaining rats at 4 weeks, after transection.
as §2, §3

NAALADase = settings: read-out: Km of NAALADase for NAAG; cited from earlier work
ischemic cell cultures = assay: Effect of NAALADase inhibition on TGF-β in in vitro ischemia model; assay type: cell-based
Procedure: A NAALADase inhibitor, Compound C, was added to ischemia cell cultures to determine its effect on TGF-β levels during stroke.
TGF-β neutralizing antibodies were then added to the ischemic cell cultures.

[5] = tested on: rats subjected to middle cerebral artery occlusion; assay: Effect of NAALADase inhibition on TGF-β in in vivo ischemia model (MCAO); design: species or system rat
Source text: The effect of TGF-β neutralizing antibodies on the neuroprotective effect of Compound C was also studied in rats following MCAO.

[6] = tested on: chronic constrictive injury-induced rats; assay: Neuropathic pain in chronic constriction injury (CCI) model; assay type: in vivo, rat; settings: 50 mg/kg i.p. daily from 10 days post surgery, significant from 11 days of treatment
Procedure: Sciatic nerve ligation, consisting of 4 ligatures tied loosely around the sciatic nerve at 1 mm intervals proximal to the nerve trifurcation, was performed on rats. […] The rats were habituated to a Hargreaves apparatus. An infrared heat source was directed onto the dorsal surface of each rat's hindpaws and the time taken for the rat to withdraw its paws was noted. The difference in scores between the latency of the response for the paw on the operated side versus the paw on the unoperated control side was determined.
The rats received either Compound C (50 mg/kg i.p. daily) or a vehicle starting 10 days post surgery. […] Normal (unoperated) rats had approximately equal latencies for both paws. This effect was significant starting at 11 days of drug treatment and persisted through to the end of the study (for 21 days of daily dosing).

[7] = 2 weeks survival after transection
[8] = 4 weeks survival after transection

- DISEASE ONSET FOR COMPOUND A TREATED MICE (transgenic G1H mice; Study 1, 50 mg/kg i.p. daily): 221 days
- DISEASE ONSET FOR COMPOUND A TREATED MICE (transgenic G1H mice; Study 2, 50 mg/kg i.p. daily): 166 days
SMILES: O=C(O)CCC(CP(=O)(O)Cc1c(F)c(F)c(F)c(F)c1F)C(=O)O (centres unmarked) [Compound A]
- hyperalgesic response (withdrawal latency difference score) (STZ-diabetic rats [1]): completely reversed
- nerve conduction velocity deficits versus diabetic vehicle controls (BB/W diabetic rats; 10 mg/kg daily, from 8 weeks to six months): significantly less severe nerve conduction deficits
- withdrawal latency versus diabetic vehicle-treated rats (BB/W diabetic rats; 10 mg/kg i.p. daily, from 4 weeks through six months of treatment): longer withdrawal latencies
- motor and sensory nerve conduction velocities (STZ-diabetic rats [2]): tended to improve (increase)
- DIFFERENCE in disease onset, treated versus vehicle (transgenic G1H mice; Study 1): 32
- DIFFERENCE in disease onset, treated versus vehicle (transgenic G1H mice; Study 2): 25
- FIBER NUMBER ± SEM [3]: 79156 ± 2436
- PERCENT DIFFERENCE ± SEM in fiber number between glaucoma and normal eye ([3]; positive = fewer fibers in glaucoma eye): −1.82 ± 2.92%
- remaining axons relative to saline-treated rats ([4]; 2 weeks after transection): 3 times
- FIBER NUMBER ± SEM [4, 7]: 26,426 ± 13,293
- PERCENT DIFFERENCE ± SEM in fiber number between transected and normal eye [4, 7]: 65.3 ± 17.8%
- FIBER NUMBER ± SEM [4, 8]: 13,599 ± 3,519
- PERCENT DIFFERENCE ± SEM in fiber number between transected and normal eye [4, 8]: 82.4 ± 4.0%

SMILES: CC(=O)N[C@@H](CC(=O)O)C(=O)N[C@@H](CCC(=O)O)C(=O)O [NAAG, N-acetyl-aspartyl-glutamate] (Ac-Asp-Glu-OH)
- Km (NAALADase): 0.54 µM

SMILES: O=C(O)CCC(CP(=O)(O)O)C(=O)O (centres unmarked) [Compound C, 2-(phosphonomethyl)-pentanedioic acid]
- TGF-β1 concentrations in ischemic cell cultures (ischemic cell cultures; FIG. 1): increased concentrations
- TGF-β2 concentrations in ischemic cell cultures (ischemic cell cultures; FIG. 2): increased concentrations
- neuroprotective effect after addition of TGF-β neutralizing antibodies (ischemic cell cultures; in vitro ischemia model, FIG. 3): blocked
- neuroprotective effect after addition of FGF antibody (ischemic cell cultures; in vitro ischemia model, FIG. 4): did not block
- neuroprotective effect in vivo with TGF-β neutralizing antibodies ([5]; FIG. 5): significantly attenuated
- TGF-β1 levels during occlusion and reperfusion ([5]; microdialysis, FIG. 6): significant rise
- difference scores between the two paws (withdrawal latency) [6]: dramatically normalized

From patent US7148250B2, “Indoles as NAALADase inhibitors” (Guilford Pharmaceuticals Inc., priority 2001, dated 2006)
